In PubChem BioAssay AID330 (DTP/NCI, 2004):
Where “and” joins values, the source holds several entries; their conditions need not be identical. Equal values may be shown once. Toxic doses and inconclusive results are not listed. The calls were made as follows: active = survival T/C of 150% or more; inactive = T/C below 125% in these data.

System: P388 leukemia ip, CD2F1 mice, survival T/C
Test: NCI In Vivo Anticancer Drug Screen. Data for tumor model P388 Leukemia (intraperitoneal) in CD2F1 (CDF1) mice
Details: endpoint: median survival time, higher = longer survival
Procedure, shortened: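 Mice carrying the transplanted tumor received test compound or vehicle. Survival was recorded in each group, and the value is the treated-group measurement divided by that of the vehicle-treated control group.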

[1] = dose: 60.0 mg/kg/injection, schedule: Q01DX005 (ip), vehicle: saline with Tween-80
[2] = dose: 120.0 mg/kg/injection, schedule: Q01DX005 (ip), vehicle: saline with Tween-80
[3] = dose: 240.0 mg/kg/injection, schedule: Q01DX005 (ip), vehicle: saline with Tween-80
[4] = dose: 12.5 mg/kg/injection, schedule: Q01DX005 (ip), vehicle: saline
[5] = dose: 25.0 mg/kg/injection, schedule: Q01DX005 (ip), vehicle: saline
[6] = dose: 100.0 mg/kg/injection, schedule: Q04DX002 (ip), vehicle: saline
[7] = dose: 100.0 mg/kg/injection, schedule: Q04DX003 (ip), vehicle: saline with Tween-80
[8] = dose: 200.0 mg/kg/injection, schedule: Q04DX003 (ip), vehicle: saline with Tween-80
[9] = dose: 400.0 mg/kg/injection, schedule: Q04DX003 (ip), vehicle: saline with Tween-80

Measured: T/C

CNC(=O)Oc1cccc2c1C(=O)OC2=O
inactive: dose: 100.0 mg/kg/injection, schedule: Q01DX001 (ip), vehicle: saline with Tween-80 100 % of control | dose: 200.0 mg/kg/injection, schedule: Q01DX001 (ip), vehicle: saline with Tween-80 92 % of control | dose: 400.0 mg/kg/injection, schedule: Q01DX001 (ip), vehicle: saline with Tween-80 102 % of control

O=C(/C=C/c1ccc(Cl)c(Cl)c1)c1cccc(O)c(=O)c1
inactive: dose: 25.0 mg/kg/injection, schedule: Q01DX009 (ip), vehicle: Klucel (hydroxypropylcellulose) (HPC) 102 % of control | dose: 50.0 mg/kg/injection, schedule: Q01DX009 (ip), vehicle: Klucel (hydroxypropylcellulose) (HPC) 111 % of control and 118 % of control | dose: 100.0 mg/kg/injection, schedule: Q01DX009 (ip), vehicle: Klucel (hydroxypropylcellulose) (HPC) 118 % of control | dose: 200.0 mg/kg/injection, schedule: Q01DX009 (ip), vehicle: Klucel (hydroxypropylcellulose) (HPC) 118 % of control

C/C(=C/C(=O)O)c1ccc([N+](=O)[O-])cc1
inactive: [1] 94 % of control | [2] 100 % of control | [3] 101 % of control

Cc1ccc(S(=O)(=O)SSN2CCCCC2)cc1
inactive: [1] 99 % of control | [2] 101 % of control | [3] 99 % of control

CCCC1CCCC[N+]1(C)[B-](F)(F)F (stereo not drawn)
inactive: dose: 3.12 mg/kg/injection, schedule: Q01DX005 (ip), vehicle: saline 100 % of control | dose: 6.25 mg/kg/injection, schedule: Q01DX005 (ip), vehicle: saline 99 % of control | [4] 103 % of control | [5] 100 % of control and 102 % of control

CCCC1C=C(c2ccccc2)N=C(c2ccccc2)S1 (stereo not drawn)
inactive: dose: 50.0 mg/kg/injection, schedule: Q01DX009 (ip), vehicle: saline with Tween-80 98 % of control | dose: 100.0 mg/kg/injection, schedule: Q01DX009 (ip), vehicle: saline with Tween-80 101 % of control | dose: 200.0 mg/kg/injection, schedule: Q01DX009 (ip), vehicle: saline with Tween-80 90 % of control

O=C(NCc1ccncc1)c1ccccc1
inactive: dose: 100.0 mg/kg/injection, schedule: Q04DX003 (ip), vehicle: saline 104 % of control | dose: 200.0 mg/kg/injection, schedule: Q04DX003 (ip), vehicle: saline 100 % of control | dose: 400.0 mg/kg/injection, schedule: Q04DX003 (ip), vehicle: saline 106 % of control

O=C(O)Cc1ccc([N+](=O)[O-])cc1[N+](=O)[O-]
inactive: dose: 12.5 mg/kg/injection, schedule: Q01DX009 (ip), vehicle: saline 100 % of control | dose: 25.0 mg/kg/injection, schedule: Q01DX009 (ip), vehicle: saline 92 % of control | dose: 50.0 mg/kg/injection, schedule: Q01DX009 (ip), vehicle: saline 100 % of control | dose: 100.0 mg/kg/injection, schedule: Q01DX009 (ip), vehicle: saline 91 % of control

Cc1ccc(COc2ccc(Cl)cc2Cn2ccnc2)cc1
inactive: dose: 25.0 mg/kg/injection, schedule: Q04DX002 (ip), vehicle: saline 104 % of control | dose: 50.0 mg/kg/injection, schedule: Q04DX002 (ip), vehicle: saline 106 % of control | [6] 106 % of control and 116 % of control

Nc1cccc(CCCCc2ccccc2)c1
inactive: [6] 103 % of control | dose: 200.0 mg/kg/injection, schedule: Q04DX002 (ip), vehicle: saline 110 % of control

COc1cccc(N2C(=O)CSC2=S)c1
inactive: [7] 95 % of control | [8] 100 % of control | [9] 90 % of control

CCN(CCN1C(=O)COCC1=O)c1ccccc1
inactive: [7] 105 % of control | [8] 104 % of control | [9] 96 % of control

CCOc1c(N=Nc2cccc(Cl)c2)c(C)nn1C(=S)SC
inactive: dose: 60.0 mg/kg/injection, schedule: Q01DX005 (ip), vehicle: Klucel + Tween-80 94 % of control | dose: 120.0 mg/kg/injection, schedule: Q01DX005 (ip), vehicle: Klucel + Tween-80 98 % of control | dose: 240.0 mg/kg/injection, schedule: Q01DX005 (ip), vehicle: Klucel + Tween-80 99 % of control

Nc1cnnc2nc[nH]c12
inactive: dose: 12.5 mg/kg/injection, schedule: Q01DX005 (ip), vehicle: Klucel (hydroxypropylcellulose) (HPC) 100 % of control | dose: 25.0 mg/kg/injection, schedule: Q01DX005 (ip), vehicle: Klucel (hydroxypropylcellulose) (HPC) 101 % of control | dose: 50.0 mg/kg/injection, schedule: Q01DX005 (ip), vehicle: Klucel (hydroxypropylcellulose) (HPC) 100 % of control and 111 % of control | dose: 100.0 mg/kg/injection, schedule: Q01DX005 (ip), vehicle: Klucel (hydroxypropylcellulose) (HPC) 117 % of control

CCCCCCN(CCCCCC)C(=N)c1ccnc2ccccc12
inactive: [4] 92 % of control | [5] 100 % of control | dose: 50.0 mg/kg/injection, schedule: Q01DX005 (ip), vehicle: saline 87 % of control and 94 % of control
